Patent US6156790A, “C-10 carbon-substituted artemisinin-like trioxane compounds having antimalarial, antiproliferative and antitumor activities” (priority 1997, dated 2000)
Where two headings read alike, the source gives them in different places.

What was measured:
[1] = system: U251; assay: cells; assay type: cell-based; conditions: Homo sapiens
[2] = system: OVCAR-8; assay: NCI 60 cell line screen (SRB), ovarian cancer; assay type: cell-based; conditions: Homo sapiens
[3] = system: SK-MEL-2; assay: cells; assay type: cell-based; conditions: Homo sapiens
[4] = system: HT29; assay: cells; assay type: cell-based; conditions: Homo sapiens, HT-29, read-out: Log10 TGI (converted)
[5] = system: HOP-62; assay: cells; assay type: cell-based; conditions: Homo sapiens
[6] = system: IGROVI; assay: cells; conditions: 60 cell
[7] = system: 60 cell line panel; assay: NCI 60 cell line screen, whole panel; assay type: cell-based; conditions: panel
[8] = system: T-47D; assay: cells; assay type: cell-based; conditions: Homo sapiens, T47D; T-47D; read-out: Log10 LC50 (converted)
[9] = system: TK-10; assay: cells; assay type: cell-based; conditions: Homo sapiens, read-out: Log10 LC50 (converted)
[10] = system: K-562; assay: cells; assay type: cell-based; conditions: Homo sapiens, K562, K-562
[11] = system: NCI-H460; assay: cells; assay type: cell-based; conditions: Homo sapiens, NCI-H460; read-out: Log10 LC50 (converted)
[12] = system: NCI-H226; assay: NCI 60 cell line screen (SRB), non-small cell lung cancer; assay type: cell-based; conditions: Homo sapiens
[13] = system: HCT-15; assay: cells; assay type: cell-based; conditions: Homo sapiens, HCT-15; read-out: Log10 LC50 (converted)
[14] = system: M14; assay: NCI 60 cell line screen (SRB), melanoma; conditions: Homo sapiens, M14, read-out: Log10 TGI
[15] = system: SN12C; assay: cells; assay type: cell-based; conditions: Homo sapiens
[16] = system: KM12; assay: cells; assay type: cell-based; conditions: Homo sapiens, read-out: Log10 TGI (converted)
[17] = system: ACHN; assay: cells; conditions: Homo sapiens
[18] = system: SW-620; assay: NCI 60 cell line screen (SRB), colon cancer; assay type: cell-based; conditions: Homo sapiens
[19] = system: SNB-19; assay: cells; assay type: cell-based; conditions: Homo sapiens, read-out: Log10 LC50 (converted)
[20] = system: MOLT-4; assay: cells; conditions: Homo sapiens
Method: The screening assay is performed on a 96-well microtitre plates.
Dose response curves, shown in the above mentioned Figures, are obtained by exposing various cancer cell lines to compounds having a known concentration ([log10 M]), as discussed in detail above, and then plotting the percentage growth of each cell line for each concentration. […] As discussed previously, the five drug dilutions routinely tested range from 10^-4 to 10^-9 molar.

[21] = system: UO-31; assay: NCI 60 cell line screen (SRB), renal cancer; assay type: cell-based; conditions: Homo sapiens
[22] = system: RXF 393; assay: cells; conditions: Homo sapiens
[23] = system: NCI-H23; assay: NCI 60 cell line screen (SRB), non-small cell lung cancer; assay type: cell-based; conditions: Homo sapiens, read-out: Log10 TGI (converted)
[24] = system: A498; assay: cells; assay type: cell-based; conditions: Homo sapiens, read-out: Log10 LC50 (converted)
[25] = system: PC-3; assay: cells; assay type: cell-based; conditions: Homo sapiens, PC-3
[26] = system: BT-549; assay: cells; assay type: cell-based; conditions: Homo sapiens
[27] = system: HCT-116; assay: cells; assay type: cell-based; conditions: Homo sapiens
[28] = system: SNB-75; assay: cells; assay type: cell-based; conditions: Homo sapiens, read-out: Log10 TGI (converted)
[29] = system: HOP-92; assay: NCI 60 cell line screen (SRB), non-small cell lung cancer; assay type: cell-based; conditions: Homo sapiens
[30] = system: EKVX; assay: as above; assay type: cell-based; conditions: Homo sapiens
[31] = system: A549/ATCC; assay: as above; assay type: cell-based; conditions: Homo sapiens
[32] = system: MDA-N; assay: cells; assay type: cell-based; conditions: Homo sapiens
[33] = system: MDA-MB231/ATCC; assay: cells; assay type: cell-based; conditions: Homo sapiens
[34] = system: MCF7; assay: cells; assay type: cell-based; conditions: Homo sapiens, MCF7; read-out: Log10 LC50 (converted)
[35] = system: SR; assay: cells; assay type: cell-based; conditions: Homo sapiens, read-out: Log10 TGI (converted)
[36] = read-out: Log10 LC50 (converted)
[37] = read-out: Log10 TGI (converted)
[38] = read-out: Log10 GI50 (converted)

## C[C@@H]1CC[C@H]2[C@@H](C)C(=O)O[C@@H]3O[C@@]4(C)CC[C@@H]1[C@]32OO4 [Artemisinin]
[1]; U-251, read-out: Log10 LC50 (converted)
  CC50: > 100 µM
[1]; U-251, read-out: Log10 TGI (converted)
  IC (TGI): > 100 µM
[2]; [36]
  CC50: > 100 µM
[2]; [37]
  IC (TGI): > 100 µM
[3]; [36]
  CC50: > 100 µM
[3]; [37]
  IC (TGI): > 100 µM
[4]
  IC (TGI): > 100 µM
[5]; [36]
  CC50: > 100 µM
[5]; [37]
  IC (TGI): > 100 µM
[6]; [38]
  GI50: 49 µM
[6]; read-out: Log10 TGI
  IC (TGI): > 100 µM
[7]; 60 cell, read-out: Log10 GI50 Delta (converted)
  GI50: 85.1 µM
[7]
  Log10 LC50 Delta: -4.00
  Log10 TGI Delta: -4.00
  Log10 TGI Range: 0.06
[8]
  CC50: > 100 µM
[9]
  CC50: > 100 µM
[10]; [38]
  GI50: 46.8 µM
[10]; [36]
  CC50: > 100 µM
[11]
  CC50: > 100 µM
[12]; [36]
  CC50: > 100 µM
[12]; [37]
  IC (TGI): > 100 µM
[13]
  CC50: > 100 µM
[14]
  IC (TGI): > 100 µM
[15]; [38]
  GI50: 61.7 µM
[15]; [36]
  CC50: > 100 µM
[16]
  IC (TGI): > 100 µM
[17]; [36]
  CC50: > 100 µM
[17]; read-out: Log10 TGI
  IC (TGI): > 100 µM
[18]; [36]
  CC50: > 100 µM
[18]; [37]
  IC (TGI): > 100 µM
[19]
  CC50: > 100 µM
[20]; MOLT-4, read-out: Log10 LC50 (converted)
  CC50: > 100 µM
[20]; MOLT-4, read-out: concentration for cytostasis
  IC (TGI): > 100 µM
[20]; MOLT-4, read-out: concentration for cytotoxicity
  CC50: > 100 µM
[20]; MOLT-4, read-out: concentration for primary growth inhibition
  GI50: > 100 µM
[21]; [38]
  GI50: 87.1 µM
[21]; [36]
  CC50: > 100 µM
[21]; [37]
  IC (TGI): 100 µM
[22]; RXF 393, read-out: Log10 GI50 (converted)
  GI50: 83.2 µM
[22]; RXF 393, read-out: Log10 LC50 (converted)
  CC50: > 100 µM
[23]
  IC (TGI): > 100 µM
[24]
  CC50: > 100 µM
[25]; [38]
  GI50: 67.6 µM
[25]; [36]
  CC50: > 100 µM
[26]; [38]
  GI50: 87.1 µM
[26]; [36]
  CC50: > 100 µM
[26]; [37]
  IC (TGI): 100 µM
[27]; [36]
  CC50: > 100 µM
[27]; [37]
  IC (TGI): > 100 µM
[28]
  IC (TGI): > 100 µM
[29]; [36]
  CC50: > 100 µM
[29]; [37]
  IC (TGI): > 100 µM
[30]; [36]
  CC50: > 100 µM
[30]; [37]
  IC (TGI): > 100 µM
[31]; [38]
  GI50: 67.6 µM
[31]; [36]
  CC50: > 100 µM
[31]; [37]
  IC (TGI): > 100 µM
[32]; [36]
  CC50: > 100 µM
[32]; [37]
  IC (TGI): > 100 µM
[33]; MDA-MB-231, read-out: Log10 GI50 (converted)
  GI50: 63.1 µM
[33]; MDA-MB-231, read-out: Log10 LC50 (converted)
  CC50: > 100 µM
[33]; MDA-MB-231, read-out: Log10 TGI (converted)
  IC (TGI): 100 µM
[34]
  CC50: > 100 µM
[35]
  IC (TGI): > 100 µM
